From patent publication US9827219B2, “Compositions and methods for lowering levels of high-sensitivity C-reactive protein (HS-CRP) in a subject” (priority 2012, dated 2017)

Test system: cognitive performance in subjects with AAMI
Assay: CDR computerized cognitive test battery, 6-week pilot study in Age-Associated Memory Impairment (Example 1)
Type: in vivo, human
Conditions: for Quality of Episodic Secondary Memory, LS mean difference vs placebo: overall
Method: A single-center, 6-week, double-blind, randomizes, parallel-group, placebo-controlled, dose-ranging pilot study was performed to evaluate the efficacy, tolerability, and safety of >96% ethyl-EPA in subjects with subjective and objective memory impairment according to generally accepted criteria for Age-Associated Memory Impairment (“AAMI”). The primary objective of the study was to determine the effect of >96% ethyl-EPA 1 g, 2 g, and 4 g daily, compared to placebo, on cognitive performance in subjects with AAMI.
The population for this study was men and women between ages 50 and 70 with self-reported complaints of memory loss, subjective and objective cognitive impairment with a score of at least one standard deviation below that of the mean for age-matched elderly population as determined by the total score of between 13 and 20 from the Paired Associated Learning (“PAL”) subset of the Wechsler Memory Scale, evidence of adequate intellectual function as determined by a scaled score of at least 9 (raw score of at least 32) on the Vocabulary subtest of the Wechsler Adult Intelligence Scale and absence of dementia as determined by a score of 24 or higher on the Mini-Mental State Examination (“MMSE”).
Ninety-four subjects were randomized into one of six groups: 1 g E-EPA daily (n=23), 2 g E-EPA daily (n=24), 4 g E-EPA daily (n=24), 1 g placebo daily (n=7), 2 g placebo daily (n=8), and 4 g placebo daily (n=8). E-EPA was provided as 500 mg soft gel capsules containing >96% E-EPA and 0.2% dl-α-tocopherol as an antioxidant. Placebo capsules contained 467 mg of liquid paraffin and 0.2% dl-α-tocopherol. Ninety-one subjects completed the study. Two subjects in the 2 g E-EPA group and one subject in the 2 g placebo group discontinued the study.
The study consisted of a screening visit, a training visit, and four study visits. At the screening visit, subjects' eligibility was determined through cognitive tests (verbal paired associated learning [PAL] subscale, vocabulary subtest, Memory Assessment Clinics Questionnaire [MAC-Q], mini mental state evaluation [MMSE] and MINI [mini international neuropsychiatric interview; sections 1 and 2 of Diagnostic and Statistical Manual of Mental Disorders, 4th Edition (DSM-IV) plus dysthymia]), haematology, clinical chemistry and 12-lead electrocardiogram (ECG). At the training visit, subjects were shown how to use the CDR computerized system. Subjects took study drug for 6 weeks and on Days 0, 14, 28 and 42, subjects underwent the CDR cognitive test battery.
A selection of tasks from the CDR computerized cognitive assessment system were administered at Visit 2 (training visit), Visit 3 (baseline), Visit 4 (Day 14), Visit 5 (Day 28) and Visit 6 (Day 42). Parallel forms of the tests were presented at each testing session. All tasks were computer-controlled, the information presented on high resolution monitors, and the responses recorded via a response model containing two buttons: one marked ‘no’ and the other ‘yes’. Five CDR composite scores were used as the primary/secondary outcome variables. The task titles were: • Word Presentation • Immediate Word Recall • Picture Presentation • Simple Reaction Time • Digit Vigilance • Choice Reaction Time • Spatial Working Memory • Numeric Working Memory • Delayed Word Recall • Word Recognition • Picture Recognition • Bond-Lader Visual Analogue Scales of Mood and Alertness • Screen, Using the Computer Mouse
To ensure consistency of approach, full training on the cognitive tests and CDR test battery was provided to study site staff and study subjects. The results of each variable were automatically recorded using the machine interface developed by CDR.
Summary statistics were provided for the ITT and Study Per Protocol Populations separately for all composite scores, major and supportive variables. Summary statistics were performed for both the unadjusted and difference from baseline data (i.e. the difference from the time matched predose assessments on Day 0). […]

[1] = ITT, ANCOVA, 1, 2, 4 g daily vs placebo
[2] = post-hoc vs corresponding placebo
[3] = post-hoc vs corresponding placebo, 1 g, Days 14 and 28

CC/C=C\C/C=C\C/C=C\C/C=C\C/C=C\CCCC(=O)OCC [AMR101, all-cis eicosa-5,8,11,14,17-pentaenoic acid ethyl ester]
Self-Rated Contentment, LS mean difference to placebo (ITT): no statistically significant effects | Immediate Word Recall Accuracy, LS mean difference vs placebo (ITT, 1 g, AM 1, p=0.040): statistically significant decreases | Immediate Word Recall Accuracy, LS mean difference vs placebo (ITT, 1 g, Day 14, p=0.028): statistically significant decreases | Picture Recognition Speed, LS mean difference vs placebo (ITT, 1 g, Day 14 at AM 2, p=0.084): trends for benefits versus placebo | Immediate Word Recall Accuracy, LS mean difference vs placebo (ITT, 1 g, Day 14 at PM 2, p=0.020): statistically significant decreases | Word Recognition Sensitivity Index, LS mean difference vs placebo (ITT, 1 g, Day 28, p=0.024): statistically significant decreases | Picture Recognition Speed, LS mean difference vs placebo (ITT, 1 g, Day 28 at AM 1, p=0.085): trends for benefits versus placebo | Picture Recognition Sensitivity Index, LS mean difference vs placebo (ITT, 1 g, Day 28 at AM 2, p=0.017): statistically significant decrease | Picture Recognition Sensitivity Index, LS mean difference vs placebo (ITT, 1 g, Day 28 at PM 2, p=0.040): statistically significant decrease | Quality of Episodic Secondary Memory, LS mean difference vs placebo (ITT, 1 g, p=0.040): statistically significant decreases versus placebo | Immediate Word Recall Accuracy, LS mean difference vs placebo (ITT, 2 g, AM 1, p=0.028): statistically significant decreases | Immediate Word Recall Accuracy, LS mean difference vs placebo (ITT, 2 g, Day 28, p=0.017): statistically significant decreases | Self-Rated Alertness, LS mean difference vs placebo (ITT, 2 g, Day 28, p=0.047): statistically significant decrease in ratings | Immediate Word Recall Accuracy, LS mean difference vs placebo (ITT, 2 g, Day 28 at AM 1, p=0.006): statistically significant decreases | Self-Rated Alertness, LS mean difference vs placebo (ITT, 2 g, Day 28 at AM 2, p=0.041): statistically significant decrease in ratings | Quality of Episodic Secondary Memory, LS mean difference vs placebo (ITT, 2 g, p=0.035): statistically significant decreases versus placebo | Spatial Working Memory Speed, LS mean difference vs placebo (ITT, 4 g, Day 14 at PM 1, p=0.048): statistically significant benefit versus placebo | Word Recognition Sensitivity Index, LS mean difference vs placebo (ITT, 4 g, Day 28 at PM 2, p=0.030): statistically significant decrease | Word Recognition Sensitivity Index, LS mean difference vs placebo (ITT, 4 g, Day 42, p=0.038): statistically significant decreases | Spatial Working Memory Speed, LS mean difference vs placebo (ITT, 4 g, Day 42 at AM 1, p=0.061): trend for a benefit | Word Recognition Sensitivity Index, LS mean difference vs placebo (ITT, 4 g, PM 2, p=0.045): statistically significant decrease | Continuity of Attention (ITT, ANCOVA): no statistically significant effect of treatment | Delayed Word Recall Accuracy (ITT, ANCOVA): no statistically significant effects of treatment | Digit Vigilance Targets Detected (ITT, ANCOVA): no statistically significant effect of treatment | Immediate Word Recall Accuracy (ITT, ANCOVA): no statistically significant effects of treatment | Numeric Working Memory Speed (ITT, ANCOVA): no statistically significant effects of treatment | Picture Recognition Sensitivity Index (ITT, ANCOVA): no statistically significant effects of treatment | Picture Recognition Speed (ITT, ANCOVA): no statistically significant effects of treatment | Quality of Episodic Secondary Memory (ITT, ANCOVA): no statistically significant effect of treatment | Self-Rated Alertness (ITT, ANCOVA): no statistically significant effect of treatment | Self-Rated Calmness (ITT, ANCOVA): no statistically significant effect of treatment | Spatial Working Memory Speed (ITT, ANCOVA): no statistically significant effects of treatment | Speed of Memory (ITT, ANCOVA): no statistically significant effects of treatment | Word Recognition Sensitivity Index (ITT, ANCOVA): no statistically significant effects of treatment | Word Recognition Speed (ITT, ANCOVA): no statistically significant effects of treatment | Digit Vigilance Speed [1]: no statistically significant effects of treatment | Power of Attention [1]: no statistically significant effect of treatment | Simple Reaction Time [1]: no statistically significant effects of treatment | Self-Rated Contentment (ITT, ANCOVA, p<0.001): statistically significant treatment by day interaction | Choice Reaction Time (ITT, ANCOVA, p=0.011): statistically significant treatment by day interaction | Spatial Working Memory Sensitivity Index (ITT, ANCOVA, p=0.015): statistically significant treatment by day interaction | Quality of Working Memory (ITT, ANCOVA, p=0.019): statistically significant treatment by day interaction | Numeric Working Memory Sensitivity Index (ITT, ANCOVA, p=0.089): statistical trend for a treatment by day interaction | Power of Attention, LS mean difference active vs placebo (ITT, any time-point): no LS mean difference between active treatment and placebo | Continuity of Attention (Study Per Protocol, ANCOVA): no statistically significant effect of treatment | Digit Vigilance Targets Detected (Study Per Protocol, ANCOVA, p=0.040): statistically significant treatment by time-point interaction | Self-Rated Contentment, LS mean difference to placebo (Study Per-Protocol): no statistically significant effects | Immediate Word Recall Accuracy, LS mean difference to placebo (Study Per-Protocol, 1 g, AM 1, p=0.038): statistically significant decreases | Immediate Word Recall Accuracy, LS mean difference to placebo (Study Per-Protocol, 1 g, AM 2, p=0.048): statistically significant decreases | Immediate Word Recall Accuracy, LS mean difference to placebo (Study Per-Protocol, 1 g, Day 14, p=0.024): statistically significant decreases | Immediate Word Recall Accuracy, LS mean difference to placebo (Study Per-Protocol, 1 g, Day 14 at PM 2, p=0.019): statistically significant decreases | Word Recognition Sensitivity Index, LS mean difference to placebo (Study Per-Protocol, 1 g, Day 28, p=0.027): statistically significant decreases | Picture Recognition Sensitivity Index, LS mean difference vs placebo (Study Per-Protocol, 1 g, Day 28 at AM 2, p=0.020): statistically significant decreases versus placebo | Picture Recognition Sensitivity Index, LS mean difference vs placebo (Study Per-Protocol, 1 g, Day 28 at PM 2, p=0.026): statistically significant decreases versus placebo | Quality of Episodic Secondary Memory, LS mean difference vs placebo (Study Per-Protocol, 1 g, p=0.043): statistically significant decreases versus placebo | Immediate Word Recall Accuracy, LS mean difference to placebo (Study Per-Protocol, 2 g, AM 1, p=0.029): statistically significant decreases | Immediate Word Recall Accuracy, LS mean difference to placebo (Study Per-Protocol, 2 g, Day 28, p=0.017): statistically significant decreases | Self-Rated Alertness, LS mean difference vs placebo (Study Per-Protocol, 2 g, Day 28, p=0.035): statistically significant decrease in ratings | Immediate Word Recall Accuracy, LS mean difference to placebo (Study Per-Protocol, 2 g, Day 28 at AM 1, p=0.006): statistically significant decreases | Self-Rated Alertness, LS mean difference vs placebo (Study Per-Protocol, 2 g, Day 28 at AM 2, p=0.033): statistically significant decrease in ratings | Quality of Episodic Secondary Memory, LS mean difference vs placebo (Study Per-Protocol, 2 g, p=0.036): statistically significant decreases versus placebo | Word Recognition Sensitivity Index, LS mean difference to placebo (Study Per-Protocol, 4 g, Day 42, p=0.038): statistically significant decreases | Self-Rated Calmness, LS mean difference vs placebo (Study Per-Protocol, 4 g, Day 42 at PM 1, p=0.071): statistical trend for an increase in ratings versus placebo | Delayed Word Recall Accuracy (Study Per-Protocol, ANCOVA): no statistically significant effects of treatment | Digit Vigilance Speed (Study Per-Protocol, ANCOVA): no statistically significant effects of treatment | Immediate Word Recall Accuracy (Study Per-Protocol, ANCOVA): no statistically significant effects of treatment | Numeric Working Memory Speed (Study Per-Protocol, ANCOVA): no statistical significant effects of treatment | Picture Recognition Sensitivity Index (Study Per-Protocol, ANCOVA): no statistically significant effects of treatment | Picture Recognition Speed (Study Per-Protocol, ANCOVA): no statistical significant effects of treatment | Power of Attention (Study Per-Protocol, ANCOVA): no statistically significant effect of treatment | Quality of Episodic Secondary Memory (Study Per-Protocol, ANCOVA): no statistically significant effects of treatment | Self-Rated Alertness (Study Per-Protocol, ANCOVA): no statistically significant effect of treatment | Self-Rated Calmness (Study Per-Protocol, ANCOVA): no statistically significant effect of treatment | Simple Reaction Time (Study Per-Protocol, ANCOVA): no statistically significant effects of treatment | Spatial Working Memory Speed (Study Per-Protocol, ANCOVA): no statistical significant effects of treatment | Speed of Memory (Study Per-Protocol, ANCOVA): no statistical significant effects of treatment | Word Recognition Sensitivity Index (Study Per-Protocol, ANCOVA): no statistically significant effects of treatment | Word Recognition Speed (Study Per-Protocol, ANCOVA): no statistical significant effects of treatment | Self-Rated Contentment (Study Per-Protocol, ANCOVA, p<0.001): statistically significant treatment by day interaction | Choice Reaction Time (Study Per-Protocol, ANCOVA, p=0.013): statistically significant treatment by day interaction | Spatial Working Memory Sensitivity Index (Study Per-Protocol, ANCOVA, p=0.014): statistically significant treatment by day interaction | Quality of Working Memory (Study Per-Protocol, ANCOVA, p=0.021): statistically significant treatment by day interaction | Power of Attention, difference active vs placebo (Study Per-Protocol, any time-point): no difference between active treatment and placebo | Continuity of Attention [2]: no general pattern of effects | Numeric Working Memory Sensitivity Index [2]: only isolated improvements and declines in performance | Quality of Working Memory [2]: only isolated improvements and declines in performance | Self-Rated Calmness [2]: no differences between active treatment and placebo | Power of Attention (post-hoc vs corresponding placebo group, 4 g, Day 42): overall benefit versus the corresponding placebo | Self-Rated Alertness [3]: decreases in ratings | Self-Rated Contentment [3]: decreases in ratings | Choice Reaction Time (post-hoc vs corresponding placebo, 4 g, Day 42): superior to placebo at every time point | Spatial Working Memory Sensitivity Index (post-hoc vs corresponding placebo, 4 g, Day 42, Study PP Population): overall benefit for ethyl-EPA 4 g over placebo | Simple Reaction Time (post-hoc vs corresponding placebo, 4 g, PM 2 collapsed across days, several time-points on Days 14 and 42): improvements in performance | Choice Reaction Time (post-hoc vs corresponding placebo, 4 g, all study days): overall benefit versus corresponding placebo | Quality of Episodic Secondary Memory and contributing subtasks (post-hoc vs corresponding placebo, explained by pre-existing differences between groups): a number of decreases for ethyl-EPA | Subtask measures of Speed of Memory (post-hoc vs corresponding placebo, mostly 1 g): some signs of improvement in performance
